Test results as given in patent US10253274B2, “Compounds and methods for inhibiting corrosion in hydrocarbon processing units” (General Electric Company, priority 2012, dated 2019).
Where two headings read alike, the source gives them in different places.

Tests used:
[1] = Neutralization efficiency by two-phase titration (pH at amine titrant concentration); type: physicochemical; details: 100° C.; for Neutral. Efficiency pH at 250 ppm: 250 ppm amine titrant; for Neutral. Efficiency pH at 500 ppm: 500 ppm amine titrant; for Neutral. Efficiency pH at 1000 ppm: 1000 ppm amine titrant
Procedure: Several amines were tested to determine their efficiencies in neutralizing acidic species and reducing deposits of hydrochloride and amine salts. The neutralization efficiency of these amines was tested using two-phase titration. For each amine tested, a titrand (100 ml) was placed in a flask. The titrand was designed to simulate an initial condensate and comprised 90 vol % naphtha and 10 vol % acidic water. The titrand was heated to 100° C. and maintained at that temperature while amine titrant was added to the flask.
A second set of tests were performed using some of the effective amines above. Additional tertiary amines were also tested and found to be effective. The additional tertiary amines were N-methyl piperidine, 2-dimethylamino 2-methyl 1-propanol (“DMAMP”) in an azeotropic solution comprising 80 wt % amine, N,N,N′,N′-tetramethyldiamino methane (“TMMD”), dimethyl tertiary butanolamine (“DMTBA”), and dimethyl methoxypropylamine (“DMMOPA”). The neutralization efficiency of these amines was tested using two-phase titration. For each amine tested, a titrand (100 ml) was placed in a flask. The titrand was designed to simulate an initial condensate and comprised 90 vol % naphtha and 10 vol % acidic water. The titrand was heated to 100° C. and maintained at that temperature while amine titrant was added to the flask. The tests were repeated 3 times in the second set of tests. The data in Table 2 are the averages of the 3 repeated tests.

[2] = Amine-HCl salt precipitation potential index (Salt PPI) relative to ammonia salt; type: physicochemical
Source text: Without limiting this specification to any particular theory of operation, the overall efficiency of a given amine may be predicted upon assessment of several factors. One such factor is the amine-HCl salt precipitation potential index (“Salt PPI”). The Salt PPI may also be known by those in the art as the salt volatility index. These indices are merely a comparison of the precipitation potential of the amine salt to the salt of a typical neutralizing compound used in hydrocarbon refining, ammonia.
Salt PPI may be calculated from the equation: […]
If one were to substitute the vapor pressure of ammonia for the vapor pressure of the amine in the equation, the Salt PPI would be 1.0. Effective amines are those that are as good, if not better than the typical additive, ammonia. Thus, effective amines would have a Salt PPI of equal to or less than 1.0. Other neutralizers commonly used in hydrocarbon refining are trimethylamine and N-methylmorpholine.

[3] = pKa of the amine; type: physicochemical
Source text: Another factor indicative of the overall efficiency of a given amine is the logarithm of the acid dissociation constant, pKa. Generally, amines with higher pKa values are more efficient neutralizers. Accordingly, in another embodiment, the treatment composition may comprise an amine with a pKa equal to or greater than about 5.0.

[4] = Boiling point; details: Table 2
[5] = Solubility Oil/Water
[6] = Table 2, second set, averages of 3 repeated tests
[7] = Table 1, average over 225 to 300° F., ammonia benchmark = 1.0
[8] = Table 2, average over 225 to 300° F., ammonia benchmark = 1.0
[9] = Table 3, exemplary treatment composition
[10] = Table 4, exemplary treatment composition

Row | Structure (SMILES) | Neutral. Efficiency pH at 250 ppm ([1]; Table 1, first set of tests) | Neutral. Efficiency pH at 500 ppm ([1]; Table 1, first set of tests) | Neutral. Efficiency pH at 1000 ppm ([1]; Table 1, first set of tests) | Neutral. Efficiency pH at 250 ppm [1, 6] | Neutral. Efficiency pH at 500 ppm [1, 6] | Neutral. Efficiency pH at 1000 ppm [1, 6] | Salt PPI [2, 7] | Salt PPI [2, 8] | pKa ([3]; Table 1, read-out: pKa) | Boiling Point [4] | Solubility Oil/Water ([5]; Table 1) | Solubility Oil/Water ([5]; Table 2) | Solubility Oil/Water [5, 9] | Solubility Oil/Water [5, 10] | pKa ([3]; Table 2, read-out: pKa) | pKa ([3]; Table 2) | Salt PPI ([2]; ammonia salt is the benchmark) | pKa ([3]; Table 1)
1 | CC(C)C(C)N (stereo not shown) [1,2 Dimethyl propyl amine, 1,2 dimethylpropylamine] | 1.4 | 8.5 | 9.6 | 1.4 | 8.5 | 9.6 | <0.1 | 0.30 | 9.9 | 87 °C | Water | Water | – | – | – | – | – | –
2 | CN1CCN(C)CC1 [1,4-dimethylpiperazine] | 3.7 | 5.5 | 7.6 | 3.7 | 5.5 | 7.6 | <0.1 | 0.18 | 8.2 | 132 °C | Water | Water | Water | Water | – | – | – | –
3 | CN(C)C(C)(C)CO [2-Dimethylamino 2-methyl 2-propanol (DMAMP) 80% azeotrope so] [2-dimethylamino 2-methyl 1-propanol] | – | – | – | 2.3 | 6.3 | 9.5 | – | 0.27 | – | 98 °C | – | Water | – | – | – | – | – | –
4 | CN(C)C(C)(C)CO [2-dimethylamino 2-methyl 1-propanol] | – | – | – | – | – | – | – | – | – | – | – | – | – | – | 10.2 | – | – | –
5 | CCN(O)CC [Diethylhydroxylamine] | 2.4 | 4.1 | 5.0 | – | – | – | <0.1 | – | 5.61 | – | Water | – | – | – | – | – | – | –
6 | C#CCN(CC)CC [Diethylpropargylamine, diethylpropargylamine] | 2.2 | 3.6 | 5.9 | – | – | – | 0.12 | – | 7.7 | – | – | – | – | – | – | – | – | –
7 | COCCCN(C)C [Dimethyl methoxypropyl-amine (DMMOPA), dimethyl methoxypropylamine] | – | – | – | – | – | – | – | 0.20 | – | 124 °C | – | Water | – | – | – | – | – | –
8 | CN(C)C(C)(C)CO [Dimethyl tertiarybutanolamine (DMTBA), dimethyl tertiary butanolamine] | – | – | – | – | – | – | – | 0.32 | – | 150 °C | – | Water | – | – | – | 8.9 | – | –
9 | CN(C)C1CCCCC1 [Dimethylcyclohexylamine, dimethylcyclohexylamine] | 1.8 | 1.9 | 5.2 | – | – | – | 0.10 | – | 10 | – | – | – | – | – | – | – | – | –
10 | NCc1ccco1 [Furfurylamine, furfurylamine] | 2.6 | 6.5 | 8.5 | – | – | – | 0.38 | – | 8.89 | – | Water | – | – | – | – | – | – | –
11 | CN(C)CN(C)C [N,N,N′,N′-tetramethyldiaminomethane] | – | – | – | 7.54 | 8.87 | 9.25 | – | 0.30 | – | – | – | – | – | – | – | – | – | –
12 | CN(C)CCN(C)C [N,N,N′,N′-tetramethylethylenediamine] | 4.7 | 6.7 | 8.3 | 4.7 | 6.7 | 8.3 | 0.27 | 0.48 | 8.97 | 122 °C | Water | Water | – | – | – | 8.97 | – | –
13 | CN1CCCCC1 [N-methyl piperidine] | – | – | – | 2.1 | 7.5 | 8.1 | – | 0.24 | – | 107 °C | – | Water | – | – | 10.1 | – | – | –
14 | CCCCN(C)CCCC [N-methyldibutylamine] | 1.9 | 2.0 | 5.0 | – | – | – | <0.1 | – | 10.3 | – | – | – | – | – | – | – | – | –
15 | CCCN(C)CCC [N-methyldipropylamine] | 2.4 | 2.8 | 5.6 | – | – | – | <0.1 | – | 10.1 | – | – | – | – | – | – | – | – | –
16 | CN1CCOCC1 [N-methylmorpholine (NMM), N-methylmorpholine, reference compound] | 2.4 | 5.4 | 6.8 | 2.4 | 5.4 | 6.8 | 0.18 | 0.18 | 7.1 | 116 °C | – | – | – | – | – | – | – | –
17 | CN1CCCC1 [N-methylpyrrolidine] | 2.2 | 6.8 | 8.1 | 2.2 | 6.8 | 8.1 | <0.1 | 0.10 | 10.3 | 81 °C | Water | Water | Water | Water | – | – | – | –
18 | CN(C)C [Trimethylamine (TMA), Trimethylamine, reference compound] | 2.6 | 8.0 | 8.8 | 2.6 | 8.0 | 8.8 | 0.10 | 0.10 | 9.76 | 2.87 °C | Water | Water | – | – | – | 9.76 | – | –
19 | N [ammonia, reference compound] | – | – | – | – | – | – | – | – | – | – | – | – | – | – | – | – | 1.0 | –
20 | CCCNCCC [di-N-propyl amine, di-N-propylamine] | 2.2 | 3.0 | 7.6 | – | – | – | 0.24 | – | – | – | – | – | – | – | – | – | – | 10.91
